Values after ≈ are worked out from the molar mass of the structure shown. Values joined by “and” are separate entries in the source; they are usually repeats but may differ in a detail not shown here. Equal entries are not always repeated.
Legend:
[1] = tested on: Broadleaf: Mv, Sz (Monochoria vaginalis, Sphenoclea zeylanica); experiment: Example 4 field test on ordinary rice, weed control, Munoz, Philippines; type: in vivo, Monochoria vaginalis and Sphenoclea zeylanica; conditions: obs. 36 DAT
Source text: (§1) Treatments were replicated four times.

Cyperus difformis = experiment: Example 2 field test, weed control, Chia Yi, Taiwan; type: in vivo; conditions: obs. 63 DAT
Description: (§5) In the field tests of the herbicide of this invention with transplanted rice, the rice seedlings were grown in conventional manner, by seeding the rice in a typical seedbed of sandy loam to clay soil of the country wherein the test was conducted. For laboratory and greenhouse work the seedlings were obtained by seeding rice in a mixture of soil, e.g., Ray silt loam, and peat in wood flats. For purposes of testing the herbicides on younger rice seedlings (infant or Dapog) the rice was usually allowed to grow for 6-15 days before lifting for transplanting. Older (ordinary) rice plants were usually grown for a period of about 2-3 weeks, or as much as about 7 weeks before lifting. Since the period of growth is dependent upon climatic conditions, a better measure of when to transplant the rice seedling is the leaf stage of growth; for infant or Dapog rice the seedling is lifted at the 1.5-2 leaf stage of growth, and for ordinary seedlings at the 2.5-5 leaf stage. The seedlings were then transplanted to the test plots for evaluation of the herbicide for injury against weed species present with the transplanted rice. The herbicides were then applied to the growth medium of the weeds and transplant rice, either preemergent or postemergent with respect to the weeds and postemergent with respect to the transplanted rice. […] Application rates given in the tables refer to the amount of active ingredient used.

[2] = tested on: transplanted rice (ordinary and infant seedlings); experiment: Example 5 field test, rice yield; type: in vivo; conditions: in vivo
Description: (§2) In the tests described in the tables below, the herbicides were formulated and used in granular form in conventional manner. […] The commercial herbicide used was a granular product having 5% active ingredient.
(§3) In the field tests of the herbicide of this invention with transplanted rice, the rice seedlings were grown in conventional manner, by seeding the rice in a typical seedbed of sandy loam to clay soil of the country wherein the test was conducted. For laboratory and greenhouse work the seedlings were obtained by seeding rice in a mixture of soil, e.g., Ray silt loam, and peat in wood flats. For purposes of testing the herbicides on younger rice seedlings (infant or Dapog) the rice was usually allowed to grow for 6-15 days before lifting for transplanting. Older (ordinary) rice plants were usually grown for a period of about 2-3 weeks, or as much as about 7 weeks before lifting. Since the period of growth is dependent upon climatic conditions, a better measure of when to transplant the rice seedling is the leaf stage of growth; for infant or Dapog rice the seedling is lifted at the 1.5-2 leaf stage of growth, and for ordinary seedlings at the 2.5-5 leaf stage. The seedlings were then transplanted to the test plots for evaluation of the herbicide for injury against weed species present with the transplanted rice. The herbicides were then applied to the growth medium of the weeds and transplant rice, either preemergent or postemergent with respect to the weeds and postemergent with respect to the transplanted rice. Application times are designated in the tables as "DAT", meaning "days after transplant". Application rates given in the tables refer to the amount of active ingredient used.
The rice seedlings were grown to the 1.7 leaf stage for infant seedlings and to the 5.5 leaf stage for ordinary seedlings. Two days after puddling the soil in which the seedlings were to be transplanted, both infant and ordinary seedlings were transplanted into plots 8.5 m^2.
The weed symbol "Obw" represents "other broadleaf weeds" of unspecified identity. Results presented in Table 5 represent the average of 2 replications.

[3] = tested on: Ec (Echinochloa crusgalli); experiment: Example 5 field test, weed control, JAAPR, Japan; type: in vivo
transplanted rice [4] = experiment: Example 1 field test, rice yield; type: in vivo, rice (Watanabe variety); conditions: in vivo
Source text: (§4) In the field test 48 day-old seedlings (Watanabe variety) were transplanted to plots 2.5 × 6 m. seeded with the weed seeds indicated in Table 1. At 5 and 10 DAT periods, the herbicides were applied to the plants (now at the 1.2 and 2.0 leaf stage, respectively, of grass weed) at the indicated rate in kilograms per hectare (kg/ha). The weed control and rice injury results for 3 replications are reported in percentages as of the indicated times of observation. The percentages given in the "Perennials" column are based on the weight of the weeds at 63 DAT, i.e., 42 gms/3.6 m^2 for the weedy check.

transplanted rice [5] = experiment: Example 2 field test, rice yield; type: in vivo, rice (Tainan No. 5, japonica); conditions: in vivo
Description: as §2, §3
Rice seedlings (ordinary) of Tainan No. 5 variety (japonica) were transplanted at 19 days of growth. Granular formulations of Herbicides A and B were applied at the 1 leaf stage of grass weed (4 DAT) and 2.5 leaf stage of grass weed (10 DAT). Observations were made at 63 DAT and results reported in Table 2 as an average of 3 replications.

[6] = tested on: Grass: Ec and Ecol (Echinochloa crusgalli, Echinochloa colonum); experiment: Example 3 field test on Dapog rice, weed control, Munoz, Philippines; type: in vivo; conditions: obs. 42 DAT
Source text: as §1

[7] = tested on: Perennials Ek and Sa (Eleocharis kuroguwai, Sagittaria aginashi); experiment: Example 1 field test, perennial weed control, Iri, Korea; type: in vivo; conditions: for % Weed Control (Perennials Ek and Sa): weed weight at 63 DAT
Source text: as §4

Echinochloa crusgalli = experiment: Example 2 field test, weed control, Chia Yi, Taiwan; type: in vivo; conditions: obs. 63 DAT
Description: as §5

[8] = Example 10 fish toxicity, Japanese protocol; type: in vivo, carp; conditions: carp, in vivo, read-out: Medium Lethal Concentration
Description: In view of the importance of fish toxicological considerations, tests were conducted, using carp according to the Japanese protocol, to compare toxicity data for Herbicides A and B; results of those tests are shown in Table 10.

[9] = tested on: Grass: Ec and Ecol (Echinochloa crusgalli, Echinochloa colonum); experiment: Example 4 field test on ordinary rice, weed control, Munoz, Philippines; type: in vivo; conditions: obs. 36 DAT
Source text: as §1

[10] = tested on: Sedges: Cd, Ci, Fl (Cyperus difformis, Cyperus iria, Fimbristylis littoralis); experiment: as above; type: in vivo; conditions: obs. 36 DAT
Source text: as §1

In the case of CCCCOCN(C(=O)CCl)c1c(C)cccc1C(C)(C)C [Herbicide A, n-(butoxymethyl)-6'-tert-butyl-2-chloro-o-acetotoluidide], the “% Weed control, Broadleaf (Mv,Sz)” value ([1]; 5 DAT, 1.0 kg/ha) is reported as 100%, the “% Weed control, Broadleaf (Mv,Sz)” value ([1]; 5 DAT, 2.0 kg/ha) is reported as 100% and the “% Weed control, Broadleaf (Mv,Sz)” value ([1]; 5 DAT, .25 kg/ha) is reported as 100%. For the same molecule, the “% Weed control, Broadleaf (Mv,Sz)” value ([1]; 5 DAT, .5 kg/ha) was 100%, the “% Weed control, Broadleaf (Mv,Sz)” value ([1]; 14 DAT, 1.0 kg/ha) was 60% and the “% Weed control, Broadleaf (Mv,Sz)” value ([1]; 14 DAT, 2.0 kg/ha) was 60%. For the same molecule, the “% Weed control, Broadleaf (Mv,Sz)” value ([1]; 14 DAT, .25 kg/ha) was 50%, the “% Weed control, Broadleaf (Mv,Sz)” value ([1]; 14 DAT, .5 kg/ha) was 50% and the “% Weed Control (Cyperus difformis)” value (Cyperus difformis; 4 DAT, 1.0 kg/ha) was 100%. For the same molecule, the “% Weed Control (Cyperus difformis)” value (Cyperus difformis; 4 DAT, 2.0 kg/ha) was 100%, the “% Weed Control (Cyperus difformis)” value (Cyperus difformis; 4 DAT, .25 kg/ha) was 100% and the “% Weed Control (Cyperus difformis)” value (Cyperus difformis; 4 DAT, .5 kg/ha) was 100%. The “% Weed Control (Cyperus difformis)” value (Cyperus difformis; 10 DAT, 1.0 kg/ha) was 100%, the “% Weed Control (Cyperus difformis)” value (Cyperus difformis; 10 DAT, 2.0 kg/ha) was 100% and the “% Weed Control (Cyperus difformis)” value (Cyperus difformis; 10 DAT, .25 kg/ha) was 100%. The “% Weed Control (Cyperus difformis)” value (Cyperus difformis; 10 DAT, .5 kg/ha) was 100%, the “Yield % of H.W.C.” value [2] was 97% and 95% and 96% and 98% and 99% and 102% and the “yields vs Herbicide B at 1.5 kg/ha 7 DAT” value [2] was “essentially the same”. The “% Weed Control (Ec)” value ([3]; 1.0 kg/ha, 15 DAT, infant seedlings) was 100%, the “% Weed Control (Ec)” value ([3]; 1.0 kg/ha, 15 DAT, ordinary seedlings) was 100% and the “% Weed Control (Ec)” value ([3]; .25 kg/ha, 2 DAT, infant seedlings) was 100%. The “% Weed Control (Ec)” value ([3]; .25 kg/ha, 2 DAT, ordinary seedlings) was 100%, the “% Weed Control (Ec)” value ([3]; .5 kg/ha, 7 DAT, infant seedlings) was 100% and the “% Weed Control (Ec)” value ([3]; .5 kg/ha, 7 DAT, ordinary seedlings) was 100%. For the same molecule, the “control of Ec in words” value ([3]; both plots, all rates) was “controlled”, the “Yield (% of Hand-weeded Check)” value (transplanted rice [4]) was 102% and 101% and 100% and 98% and 99% and the “Yield (% of H.W. Check)” value (transplanted rice [5]) was 97% and 105% and 107% and 81% and 91% and 100% and 73%. For the same molecule, the rice yield depression (transplanted rice [5]) was “rice yield depression”, the “% Weed control, Grass (Ec and Ecol)” value ([6]; 5 DAT, 1.0 kg/ha) was 100% and the “% Weed control, Grass (Ec and Ecol)” value ([6]; 5 DAT, 2.0 kg/ha) was 100%. For the same molecule, the “% Weed control, Grass (Ec and Ecol)” value ([6]; 5 DAT, .25 kg/ha) was 100%, the “% Weed control, Grass (Ec and Ecol)” value ([6]; 5 DAT, .5 kg/ha) was 100% and the “% Weed control, Grass (Ec and Ecol)” value ([6]; 14 DAT, 1.0 kg/ha) was 50%. The “% Weed control, Grass (Ec and Ecol)” value ([6]; 14 DAT, 2.0 kg/ha) was 90%, the “% Weed control, Grass (Ec and Ecol)” value ([6]; 14 DAT, .25 kg/ha) was 0% and the “% Weed control, Grass (Ec and Ecol)” value ([6]; 14 DAT, .5 kg/ha) was 50%. The “% Weed Control (Perennials Ek and Sa)” value ([7]; 5 DAT, 1.0 kg/ha) was 68%, the “% Weed Control (Perennials Ek and Sa)” value ([7]; 5 DAT, 2.0 kg/ha) was 100% and the “% Weed Control (Perennials Ek and Sa)” value ([7]; 5 DAT, .25 kg/ha) was 0%. For the same molecule, the “% Weed Control (Perennials Ek and Sa)” value ([7]; 5 DAT, .5 kg/ha) was 55%, the “% Weed Control (Perennials Ek and Sa)” value ([7]; 10 DAT, 1.0 kg/ha) was 0% and the “% Weed Control (Perennials Ek and Sa)” value ([7]; 10 DAT, 2.0 kg/ha) was 0%. The “% Weed Control (Perennials Ek and Sa)” value ([7]; 10 DAT, .25 kg/ha) was 0%, the “% Weed Control (Perennials Ek and Sa)” value ([7]; 10 DAT, .5 kg/ha) was 2% and the perennial control ([7]; at 14 DAT and at rates less than 2 kgs/ha applied 5 DAT) was “less than adequate”. For the same molecule, the “% Weed Control (Echinochloa crusgalli)” value (Echinochloa crusgalli; 4 DAT, 1.0 kg/ha) was 100%, the “% Weed Control (Echinochloa crusgalli)” value (Echinochloa crusgalli; 4 DAT, 2.0 kg/ha) was 100% and the “% Weed Control (Echinochloa crusgalli)” value (Echinochloa crusgalli; 4 DAT, .25 kg/ha) was 85%. For the same molecule, the “% Weed Control (Echinochloa crusgalli)” value (Echinochloa crusgalli; 4 DAT, .5 kg/ha) was 98%, the “% Weed Control (Echinochloa crusgalli)” value (Echinochloa crusgalli; 10 DAT, 1.0 kg/ha) was 100% and the “% Weed Control (Echinochloa crusgalli)” value (Echinochloa crusgalli; 10 DAT, 2.0 kg/ha) was 100%. For the same molecule, the “% Weed Control (Echinochloa crusgalli)” value (Echinochloa crusgalli; 10 DAT, .25 kg/ha) was 65%, the “% Weed Control (Echinochloa crusgalli)” value (Echinochloa crusgalli; 10 DAT, .5 kg/ha) was 95% and the LC50 at 48 h ([8]; 48 hours) was 1.8 µg/mL (≈ 5.52 µM). The LC50 at 96 h ([8]; 96 hours) was 1.4 µg/mL (≈ 4.3 µM), the “% Weed control, Grass (Ec and Ecol)” value ([9]; 5 DAT, 1.0 kg/ha) was 100% and the “% Weed control, Grass (Ec and Ecol)” value ([9]; 5 DAT, 2.0 kg/ha) was 100%. The “% Weed control, Grass (Ec and Ecol)” value ([9]; 5 DAT, .25 kg/ha) was 100%, the “% Weed control, Grass (Ec and Ecol)” value ([9]; 5 DAT, .5 kg/ha) was 100% and the “% Weed control, Grass (Ec and Ecol)” value ([9]; 14 DAT, 1.0 kg/ha) was 80%. The “% Weed control, Grass (Ec and Ecol)” value ([9]; 14 DAT, 2.0 kg/ha) was 80%, the “% Weed control, Grass (Ec and Ecol)” value ([9]; 14 DAT, .25 kg/ha) was 60% and the “% Weed control, Grass (Ec and Ecol)” value ([9]; 14 DAT, .5 kg/ha) was 80%. For the same molecule, the “% Weed control, Sedges (Cd, Ci, Fl)” value ([10]; 5 DAT, 1.0 kg/ha) was 100%, the “% Weed control, Sedges (Cd, Ci, Fl)” value ([10]; 5 DAT, 2.0 kg/ha) was 100% and the “% Weed control, Sedges (Cd, Ci, Fl)” value ([10]; 5 DAT, .25 kg/ha) was 100%. For the same molecule, the “% Weed control, Sedges (Cd, Ci, Fl)” value ([10]; 5 DAT, .5 kg/ha) was 100%, the “% Weed control, Sedges (Cd, Ci, Fl)” value ([10]; 14 DAT, 1.0 kg/ha) was 60% and the “% Weed control, Sedges (Cd, Ci, Fl)” value ([10]; 14 DAT, 2.0 kg/ha) was 60%. The “% Weed control, Sedges (Cd, Ci, Fl)” value ([10]; 14 DAT, .25 kg/ha) was 60% and the “% Weed control, Sedges (Cd, Ci, Fl)” value ([10]; 14 DAT, .5 kg/ha) was 50%.

— patent publication US3955959A, “Herbicide for use in transplanted rice” (priority 1974, dated 1976)
